The structures appear in SMILES notation. Read-outs that look alike come from different tables or passages of the source.

What all share (assay type): biochemical
For assay [1], the target named is recombinant human GAA (acid alpha-glucosidase) (Homo sapiens, UniProt P10253). Description: Acid alpha-glucosidase (GAA) assay (4-methylumbelliferyl-alpha-D-pyranoside substrate, fluorescence). As to the method:
Acid alpha-glucosidase (GAA): To analyze inhibitory effects of a test compound, commercially available recombinant human GAA was incubated with multiple dilutions of test compound for 60 minutes at 37° C. 4-methylumbelliferyl-alpha-D-pyranoside was then introduced to the mixture as the substrate. 1,4-methyllumbelliferone is generated, and after an incubation for 20 minutes at 37° C., the reaction was stopped with the stop solution (0.5M glycine 0.3M NaOH pH 10). 1,4-methyllumbelliferone is detected by fluorescence (excitation at 365 nm, emission at 440 nm). Relative fluorescence compared to untreated enzymatic activity and test compound concentration is plotted as a function of percent inhibition. The IC50 is determined using a 4-PL curve fit as the measure of relative inhibitory activity of each test compound (see Table 3).

For assay [2], the target named is rat sucrase (partially purified alpha-glucosidase from intestinal rat powder) (Rattus norvegicus, UniProt P23739). Description: Intestinal alpha-glucosidase assay, sucrose substrate (Glucose GO Kit). As to the method: (§1) Intestinal alpha-glucosidases (rat maltase and sucrase): Intestinal alpha-glucosidases act upon 1,4-alpha-glucoside bonds, breaking down disaccharides to glucose. To perform this assay, partially purified alpha-glucosidase from intestinal rat powder was incubated for 60 minutes at 37° C. with multiple dilutions of test compounds. Maltose or Sucrose respectively was then introduced as substrate to the mixture and incubated for 30 minutes at 37° C. The reaction was stopped by a 5-minute incubation at 90° C. and the resultant glucose production is detected using Sigma's Glucose GO Kit. Percent inhibition was then plotted as a function of concentration for each test compound. The IC50 was determined using a 4-PL curve fit and serves as the measure of relative inhibition of each test compound (see Table 3).

Assay [3] concerns the target rat maltase (partially purified alpha-glucosidase from intestinal rat powder). Kind of assay: Intestinal alpha-glucosidase assay, maltose substrate (Glucose GO Kit). The protocol:
as §1

Assay [4] addresses T1, recombinant alpha-glucosidase II (murine full-length glucosidase II, alpha and beta subunits, Glu 2) (Mus musculus, UniProt Q8BHN3).
T1 construct: made in house; host or cells: HEK-293T cells transduced with BacMam viruses (75% alpha, 25% beta); protein harvested from culture supernatant
Kind of assay: Alpha-glucosidase II assay (4-methylumbelliferyl-alpha-D-pyranoside substrate, fluorescence).

In assay [5] the target is T2, recombinant human GBA (beta-glucocerebrosidase) (Homo sapiens, UniProt P04062).
T2 sequence (P04062 40-536): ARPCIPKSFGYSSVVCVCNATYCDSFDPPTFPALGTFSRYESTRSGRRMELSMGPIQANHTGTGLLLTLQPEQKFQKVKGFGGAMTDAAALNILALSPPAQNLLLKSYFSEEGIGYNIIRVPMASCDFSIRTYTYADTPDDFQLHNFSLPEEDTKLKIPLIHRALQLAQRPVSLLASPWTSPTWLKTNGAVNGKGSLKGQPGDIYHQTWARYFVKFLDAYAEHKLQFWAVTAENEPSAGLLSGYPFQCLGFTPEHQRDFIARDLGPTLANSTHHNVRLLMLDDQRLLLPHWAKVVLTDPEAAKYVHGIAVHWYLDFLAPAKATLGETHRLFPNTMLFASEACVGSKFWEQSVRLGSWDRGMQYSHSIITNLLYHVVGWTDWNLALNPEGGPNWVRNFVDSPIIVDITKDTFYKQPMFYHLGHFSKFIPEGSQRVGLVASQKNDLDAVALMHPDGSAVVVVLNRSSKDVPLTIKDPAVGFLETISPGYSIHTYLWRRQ
Kind of assay: Beta-glucocerebrosidase (GBA, glucosylceramidase) assay (4-methylumbelliferyl-beta-D-pyranoside substrate, fluorescence). As to the method:
Beta-glucocerebrosidase (GBA, also referred to glucosylceramidase): To analyze inhibitory effects of a test compound, commercially available recombinant human GBA was incubated with multiple dilutions of test compound for 60 minutes at 37° C. 4-methylumbelliferyl-beta-D-pyranoside was then introduced to the mixture as substrate. Following incubation for 60 minutes at 37° C., 1,4-methyllumbelliferone was generated, and the reaction was stopped with the stop solution (0.5 M glycine; 0.3 M NaOH, pH 10). 1,4-methyllumbelliferone was detected by fluorescence (excitation at 365 nm, emission at 440 nm). Relative fluorescence compared to untreated enzymatic activity and test compound concentration is then plotted as a function of percent inhibition. The IC50 was determined using a 4-PL curve fit as the measure of relative inhibitory activity of each test compound (see Table 3).

The mark [6] stands for this setting: Glucosidase 2, read-out: Glu2 IC50.

T1 sequence (O08795 15-521): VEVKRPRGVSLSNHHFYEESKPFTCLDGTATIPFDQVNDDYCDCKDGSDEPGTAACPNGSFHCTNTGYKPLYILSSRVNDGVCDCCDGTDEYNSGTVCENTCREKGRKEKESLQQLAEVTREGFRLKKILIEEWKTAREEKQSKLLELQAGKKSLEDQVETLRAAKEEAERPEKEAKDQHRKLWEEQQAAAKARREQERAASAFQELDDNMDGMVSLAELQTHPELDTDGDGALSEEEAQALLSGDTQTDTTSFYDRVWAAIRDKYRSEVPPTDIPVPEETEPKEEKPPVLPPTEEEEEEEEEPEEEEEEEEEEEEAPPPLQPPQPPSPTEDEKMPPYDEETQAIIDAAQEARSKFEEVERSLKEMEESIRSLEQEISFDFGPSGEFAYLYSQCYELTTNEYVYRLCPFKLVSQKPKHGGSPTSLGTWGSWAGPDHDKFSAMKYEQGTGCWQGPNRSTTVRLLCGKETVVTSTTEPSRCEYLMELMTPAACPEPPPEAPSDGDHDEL
T1 sequence (Q8BHN3 33-944): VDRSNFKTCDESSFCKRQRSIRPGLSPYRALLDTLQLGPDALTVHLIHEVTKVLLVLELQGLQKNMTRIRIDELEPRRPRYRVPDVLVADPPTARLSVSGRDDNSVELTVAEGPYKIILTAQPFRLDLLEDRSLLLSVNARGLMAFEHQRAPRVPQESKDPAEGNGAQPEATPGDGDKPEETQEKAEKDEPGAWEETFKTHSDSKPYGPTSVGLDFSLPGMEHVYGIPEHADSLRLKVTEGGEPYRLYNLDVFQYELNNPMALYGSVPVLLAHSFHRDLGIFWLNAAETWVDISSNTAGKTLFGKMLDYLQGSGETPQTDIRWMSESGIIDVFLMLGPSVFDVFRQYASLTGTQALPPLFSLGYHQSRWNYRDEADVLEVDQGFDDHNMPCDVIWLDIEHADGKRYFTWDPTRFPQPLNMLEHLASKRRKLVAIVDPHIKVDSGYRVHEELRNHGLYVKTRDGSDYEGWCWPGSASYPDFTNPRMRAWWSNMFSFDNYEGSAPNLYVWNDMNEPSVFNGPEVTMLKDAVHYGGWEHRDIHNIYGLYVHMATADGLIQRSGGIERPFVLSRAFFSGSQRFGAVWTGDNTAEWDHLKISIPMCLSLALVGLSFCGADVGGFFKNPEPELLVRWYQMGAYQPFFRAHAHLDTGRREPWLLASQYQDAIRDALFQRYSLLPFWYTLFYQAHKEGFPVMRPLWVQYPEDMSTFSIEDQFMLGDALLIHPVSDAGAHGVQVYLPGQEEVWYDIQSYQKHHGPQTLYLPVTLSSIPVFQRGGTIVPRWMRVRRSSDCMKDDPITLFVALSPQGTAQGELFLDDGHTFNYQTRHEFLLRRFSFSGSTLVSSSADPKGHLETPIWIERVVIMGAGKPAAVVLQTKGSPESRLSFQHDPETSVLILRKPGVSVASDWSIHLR
rat sucrase (partially purified alpha-glucosidase from intestinal rat powder), sequence (P23739 whole entry): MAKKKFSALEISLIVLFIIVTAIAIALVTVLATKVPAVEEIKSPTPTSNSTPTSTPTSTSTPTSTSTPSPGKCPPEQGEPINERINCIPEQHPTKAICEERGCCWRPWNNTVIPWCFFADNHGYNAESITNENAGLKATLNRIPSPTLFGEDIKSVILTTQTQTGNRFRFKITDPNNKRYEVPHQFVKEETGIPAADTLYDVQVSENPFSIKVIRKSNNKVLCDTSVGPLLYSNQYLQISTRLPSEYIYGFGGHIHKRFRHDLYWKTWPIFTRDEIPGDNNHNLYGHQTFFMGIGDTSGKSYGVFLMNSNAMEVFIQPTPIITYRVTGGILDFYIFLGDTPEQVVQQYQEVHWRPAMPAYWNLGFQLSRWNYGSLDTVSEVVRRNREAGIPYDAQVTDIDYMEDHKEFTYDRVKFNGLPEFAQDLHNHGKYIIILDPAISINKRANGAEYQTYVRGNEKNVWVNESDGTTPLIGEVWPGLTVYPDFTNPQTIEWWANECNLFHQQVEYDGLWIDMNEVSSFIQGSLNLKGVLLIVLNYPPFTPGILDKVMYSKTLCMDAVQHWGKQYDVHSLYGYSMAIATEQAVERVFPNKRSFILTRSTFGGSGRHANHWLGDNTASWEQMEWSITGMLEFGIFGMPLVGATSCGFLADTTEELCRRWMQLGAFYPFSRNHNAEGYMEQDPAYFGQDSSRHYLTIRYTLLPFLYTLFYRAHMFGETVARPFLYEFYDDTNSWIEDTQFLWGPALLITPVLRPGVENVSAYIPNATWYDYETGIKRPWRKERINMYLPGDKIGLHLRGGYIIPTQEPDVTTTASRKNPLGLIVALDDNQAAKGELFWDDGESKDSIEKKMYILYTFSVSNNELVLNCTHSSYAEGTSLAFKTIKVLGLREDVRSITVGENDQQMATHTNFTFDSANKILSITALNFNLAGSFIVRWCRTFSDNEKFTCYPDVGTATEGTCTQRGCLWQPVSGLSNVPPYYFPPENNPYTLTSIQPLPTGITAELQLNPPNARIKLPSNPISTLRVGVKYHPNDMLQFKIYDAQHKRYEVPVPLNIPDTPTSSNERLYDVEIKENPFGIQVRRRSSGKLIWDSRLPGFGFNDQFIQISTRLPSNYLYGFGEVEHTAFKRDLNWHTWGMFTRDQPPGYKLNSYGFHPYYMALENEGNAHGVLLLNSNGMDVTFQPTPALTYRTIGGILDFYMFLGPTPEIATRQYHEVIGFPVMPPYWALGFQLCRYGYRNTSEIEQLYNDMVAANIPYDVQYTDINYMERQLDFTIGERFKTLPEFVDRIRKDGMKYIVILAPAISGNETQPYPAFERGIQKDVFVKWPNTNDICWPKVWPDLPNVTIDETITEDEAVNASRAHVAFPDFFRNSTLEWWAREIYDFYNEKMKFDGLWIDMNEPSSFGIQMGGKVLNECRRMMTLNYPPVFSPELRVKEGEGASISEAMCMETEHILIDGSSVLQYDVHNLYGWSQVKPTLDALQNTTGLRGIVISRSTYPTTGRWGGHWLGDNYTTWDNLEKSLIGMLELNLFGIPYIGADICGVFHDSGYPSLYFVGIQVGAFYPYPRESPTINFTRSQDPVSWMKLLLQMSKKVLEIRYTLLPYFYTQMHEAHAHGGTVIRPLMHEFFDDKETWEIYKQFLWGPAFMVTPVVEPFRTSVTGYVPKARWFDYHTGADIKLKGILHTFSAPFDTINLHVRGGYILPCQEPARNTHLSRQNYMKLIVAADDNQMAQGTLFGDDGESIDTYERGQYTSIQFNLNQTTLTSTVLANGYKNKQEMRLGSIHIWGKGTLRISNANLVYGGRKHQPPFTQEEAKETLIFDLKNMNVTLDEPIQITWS

`O=[N+]([O-])c1cc(N2C3CCC2COC3)ccc1NCc1ccc(CN2CC(O)C(O)C(O)C2CO)cc1` (stereo in doubt) [Compound 1018, (2S,3S,4S,5R)-2-(hydroxymethyl)-1-({4-[({2-nitro-4-[(1R,5S)-3-oxa-8-azabicyclo[3.2.1]octan-8-yl]phenyl}amino)methyl]phenyl}methyl) piperidine-3,4,5-triol]: the IC50 was 44 nM in assay [1]; below 1 nM in assay [2]; below 1 nM in assay [3]; below 1 nM in assay [4]; above 100000 nM in assay [5].
As for `[N-]=[N+]=Nc1ccc(NCCc2ccc(CCN3C[C@@H](O)[C@H](O)[C@@H](O)[C@@H]3CO)c3ccccc23)c([N+](=O)[O-])c1` (stereo in doubt) [Compound 1178, (2S,3S,4S,5R)-1-[2-(4-{2-[(4-azido-2-nitrophenyl)amino]ethyl}naphthalen-1-yl)ethyl]-2-(hydroxymethyl)piperidine-3,4,5-triol], the half-inhibitory concentration (IC50) in assay [1] stood at 5930 nM; in assay [2], 71500 nM; in assay [3], 3480 nM; in assay [4] (setting [6]), 9360 nM; in assay [5] it was 5900 nM.
For `OC[C@@H]1[C@@H](O)[C@H](O)[C@@H](O)CN1CCCCCCNc1cc(-c2cccnn2)cc(C2CC2)c1` [Compound 1008, (2R,3R,4R,5S)-1-(6-{[3-cyclopropyl-5-(pyridazin-3-yl)phenyl]amino}hexyl)-2-(hydroxymethyl)piperidine-3,4,5-triol] the same measures were 64 nM, 78 nM, 6 nM, 12 nM and 2330 nM.
On the same counts, the results for `OC[C@@H]1[C@@H](O)[C@H](O)[C@@H](O)CN1CCCCCCNc1cc(-c2ncccn2)cc(C2CC2)c1` [Compound 1009, (2R,3R,4R,5S)-1-(6-{[3-cyclopropyl-5-(pyrimidin-2-yl)phenyl]amino}hexyl)-2-(hydroxymethyl)piperidine-3,4,5-triol] are 62 nM, 71 nM, 7 nM, 17 nM and 2590 nM.
With `OC[C@@H]1[C@@H](O)[C@H](O)[C@@H](O)CN1Cc1ccc(CNc2cc(C3CC3)cc(N3CCOCC3)c2)cc1` [Compound 1010, (2R,3R,4R,5S)-1-{[4-({[3-cyclopropyl-5-(morpholin-4-yl)phenyl]amino}methyl)phenyl]methyl}-2-(hydroxymethyl)piperidine-3,4,5-triol], the 50% inhibitory concentration (IC50) in assay [1] was 359 nM; in assay [2] it was 96 nM; in assay [3], 12 nM; in assay [4] (setting [6]), 1070 nM; in assay [5], above 100000 nM.
On the same counts, the results for `OC[C@@H]1[C@@H](O)[C@H](O)[C@@H](O)CN1Cc1ccc(CNc2cc(-c3cccnn3)cc(C3CC3)c2)cc1` [Compound 1012, (2R,3R,4R,5S)-1-{[4-({[3-cyclopropyl-5-(pyridazin-3-yl)phenyl]amino}methyl)phenyl]methyl}-2-(hydroxymethyl)piperidine-3,4,5-triol] are 350 nM, 33 nM, 9 nM, 1320 nM and 32300 nM.
Turning to `OC[C@@H]1[C@@H](O)[C@H](O)[C@@H](O)CN1Cc1ccc(CNc2cc(-c3ncccn3)cc(C3CC3)c2)cc1` [Compound 1013, (2R,3R,4R,5S)-1-{[4-({[3-cyclopropyl-5-(pyrimidin-2-yl)phenyl]amino}methyl)phenyl]methyl}-2-(hydroxymethyl)piperidine-3,4,5-triol], the 50% inhibitory concentration (IC50) in assay [1] was 254 nM; in assay [2], 26 nM; in assay [3], 5 nM; in assay [4] (setting [6]), 153 nM; in assay [5] it was above 100000 nM.
Consider `C[C@@H]1CN(c2ccc(NCc3ccc(CN4C[C@H](O)[C@@H](O)[C@H](O)[C@H]4CO)cc3)c([N+](=O)[O-])c2)C[C@H](C)O1` [Compound 1014], for which the 50% inhibitory concentration (IC50) in assay [1] is 30 nM; in assay [2] it was 15 nM; in assay [3], 6 nM; in assay [4] (setting [6]) it was 4 nM; in assay [5], above 100000 nM.
For `CS(=O)(=O)c1cc(Br)cc(NCc2cccc(CN3C[C@H](O)[C@@H](O)[C@H](O)[C@H]3CO)c2)c1` [Compound 1022, (2R,3R,4R,5S)-1-[(3-{[(3-bromo-5-methanesulfonylphenyl)amino]methyl}phenyl)methyl]-2-(hydroxymethyl)piperidine-3,4,5-triol] the same measures were 803 nM, 26 nM, 28 nM, 7920 nM and 90400 nM.
In the case of `Cc1cc(NCc2cccc(CN3C[C@H](O)[C@@H](O)[C@H](O)[C@H]3CO)c2)cc(-c2ncccn2)c1` [Compound 1035, (2R,3R,4R,5S)-2-(hydroxymethyl)-1-{[3-({[3-methyl-5-(pyrimidin-2-yl)phenyl]amino}methyl)phenyl]methyl}piperidine-3,4,5-triol], the IC50 in assay [1] is 5100 nM; in assay [2], 51 nM; in assay [3], 49 nM; in assay [4] (setting [6]) it was 66500 nM; in assay [5] it was above 100000 nM.
`CS(=O)(=O)c1cc(NCc2cccc(CN3C[C@H](O)[C@@H](O)[C@H](O)[C@H]3CO)c2)cc(-c2cccnn2)c1` [Compound 1040, (2R,3R,4R,5S)-2-(hydroxymethyl)-1-{[3-({[3-methanesulfonyl-5-(pyridazin-3-yl)phenyl]amino}methyl)phenyl]methyl}piperidine-3,4,5-triol]: the IC50 in assay [1] was 1300 nM; in assay [2] it was 126 nM; in assay [3], 38 nM; in assay [4], 4610 nM; in assay [5], above 100000 nM.
In the case of `CS(=O)(=O)c1cc(NCc2cccc(CN3C[C@H](O)[C@@H](O)[C@H](O)[C@H]3CO)c2)cc(-c2ncccn2)c1` [Compound 1041, (2R,3R,4R,5S)-2-(hydroxymethyl)-1-{[3-({[3-methanesulfonyl-5-(pyrimidin-2-yl)phenyl]amino}methyl)phenyl]methyl}piperidine-3,4,5-triol], the IC50 was 1880 nM in assay [1]; 187 nM in assay [2]; 79 nM in assay [3]; 7180 nM in assay [4] (setting [6]); above 100000 nM in assay [5].
On the same counts, the results for `N#Cc1cc(NCc2cccc(CN3C[C@H](O)[C@@H](O)[C@H](O)[C@H]3CO)c2)cc(C2=COCCO2)c1` [Compound 1044, 3-(5,6-dihydro-1,4-dioxin-2-yl)-5-{[(3-{[(2R,3R,4R,5S)-3,4,5-trihydroxy-2-(hydroxymethyl)piperidin-1-yl]methyl}phenyl)methyl]amino}benzonitrile] are 1420 nM, below 1 nM, below 1 nM, 2670 nM and 53200 nM.
Turning to `OC[C@@H]1[C@@H](O)[C@H](O)[C@@H](O)CN1CCc1ccc(CCNc2cc(Cl)cc(C3=CCOCC3)c2)cc1` [Compound 1160, (2R,3R,4R,5S)-1-{2-[4-(2-{[3-chloro-5-(3,6-dihydro-2H-pyran-4-yl)phenyl]amino}ethyl)phenyl]ethyl}-2-(hydroxymethyl)piperidine-3,4,5-triol], the 50% inhibitory concentration (IC50) in assay [1] stood at 24 nM; in assay [2], 931 nM; in assay [3] it was 75 nM; in assay [5], 1860 nM.

What is called IC50 is the midpoint of a concentration-inhibition curve.
